The source made the active and inactive calls. No stated cut-off is given here; in the data, actives have a measured IC50 and inactives only a lower limit.
What was measured:
Type in all cases: functional
Caspase-3 = biological target: T1, Caspase-3 (Homo sapiens, UniProt P42574);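 further: Dose-response selectivity test against caspase-3 for candidate inhibitors of sentrin-specific proteases (SENPs)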
T1 sequence (P42574 whole entry): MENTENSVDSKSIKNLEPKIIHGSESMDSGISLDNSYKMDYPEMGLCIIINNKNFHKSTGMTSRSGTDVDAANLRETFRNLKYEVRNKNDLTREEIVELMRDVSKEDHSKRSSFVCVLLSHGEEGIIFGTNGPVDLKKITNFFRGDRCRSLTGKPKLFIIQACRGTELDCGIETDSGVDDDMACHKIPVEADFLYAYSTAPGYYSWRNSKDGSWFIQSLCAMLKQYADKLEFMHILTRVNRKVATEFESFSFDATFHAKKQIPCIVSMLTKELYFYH

[1] = biological target: T2, Sentrin-specific protease 7 (Homo sapiens, UniProt Q9BQF6);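 further: Luminescence-based dose-response confirmation of ultra-high-throughput screening hits, measuring inhibition of SENP7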
T2 sequence (Q9BQF6 whole entry): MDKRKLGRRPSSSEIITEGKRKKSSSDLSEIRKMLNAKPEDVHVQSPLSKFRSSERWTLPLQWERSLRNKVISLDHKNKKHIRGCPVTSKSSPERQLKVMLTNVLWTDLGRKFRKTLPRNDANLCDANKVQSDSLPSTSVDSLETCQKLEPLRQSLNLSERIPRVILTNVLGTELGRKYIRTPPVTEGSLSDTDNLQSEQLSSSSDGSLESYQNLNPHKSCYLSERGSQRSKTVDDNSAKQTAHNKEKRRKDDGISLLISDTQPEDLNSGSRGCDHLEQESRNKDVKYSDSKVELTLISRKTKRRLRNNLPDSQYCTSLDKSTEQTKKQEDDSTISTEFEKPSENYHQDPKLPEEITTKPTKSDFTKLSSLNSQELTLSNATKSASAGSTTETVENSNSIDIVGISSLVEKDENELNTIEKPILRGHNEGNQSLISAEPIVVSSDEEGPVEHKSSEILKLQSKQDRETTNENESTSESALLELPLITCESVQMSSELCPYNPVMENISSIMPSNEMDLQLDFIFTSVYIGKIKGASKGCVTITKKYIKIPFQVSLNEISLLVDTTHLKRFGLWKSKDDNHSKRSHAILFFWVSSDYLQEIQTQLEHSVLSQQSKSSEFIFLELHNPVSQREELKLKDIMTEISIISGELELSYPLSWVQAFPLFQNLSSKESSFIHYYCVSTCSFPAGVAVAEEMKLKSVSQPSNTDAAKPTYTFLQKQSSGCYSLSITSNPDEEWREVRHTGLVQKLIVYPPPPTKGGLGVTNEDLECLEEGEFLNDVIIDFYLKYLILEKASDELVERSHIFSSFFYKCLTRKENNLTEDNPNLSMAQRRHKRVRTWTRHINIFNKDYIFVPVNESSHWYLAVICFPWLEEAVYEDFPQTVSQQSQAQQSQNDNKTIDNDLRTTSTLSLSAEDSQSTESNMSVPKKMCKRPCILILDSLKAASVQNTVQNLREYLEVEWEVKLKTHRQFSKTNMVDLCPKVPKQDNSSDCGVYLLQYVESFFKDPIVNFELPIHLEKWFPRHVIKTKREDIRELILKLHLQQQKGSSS

[2] = biological target: T3, Sentrin-specific protease 6 (Homo sapiens, UniProt Q9GZR1);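 further: Luminescence-based dose-response confirmatory assay of SENP6 inhibition, following up an ultra-high-throughput screen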
T3 sequence (Q9GZR1 whole entry): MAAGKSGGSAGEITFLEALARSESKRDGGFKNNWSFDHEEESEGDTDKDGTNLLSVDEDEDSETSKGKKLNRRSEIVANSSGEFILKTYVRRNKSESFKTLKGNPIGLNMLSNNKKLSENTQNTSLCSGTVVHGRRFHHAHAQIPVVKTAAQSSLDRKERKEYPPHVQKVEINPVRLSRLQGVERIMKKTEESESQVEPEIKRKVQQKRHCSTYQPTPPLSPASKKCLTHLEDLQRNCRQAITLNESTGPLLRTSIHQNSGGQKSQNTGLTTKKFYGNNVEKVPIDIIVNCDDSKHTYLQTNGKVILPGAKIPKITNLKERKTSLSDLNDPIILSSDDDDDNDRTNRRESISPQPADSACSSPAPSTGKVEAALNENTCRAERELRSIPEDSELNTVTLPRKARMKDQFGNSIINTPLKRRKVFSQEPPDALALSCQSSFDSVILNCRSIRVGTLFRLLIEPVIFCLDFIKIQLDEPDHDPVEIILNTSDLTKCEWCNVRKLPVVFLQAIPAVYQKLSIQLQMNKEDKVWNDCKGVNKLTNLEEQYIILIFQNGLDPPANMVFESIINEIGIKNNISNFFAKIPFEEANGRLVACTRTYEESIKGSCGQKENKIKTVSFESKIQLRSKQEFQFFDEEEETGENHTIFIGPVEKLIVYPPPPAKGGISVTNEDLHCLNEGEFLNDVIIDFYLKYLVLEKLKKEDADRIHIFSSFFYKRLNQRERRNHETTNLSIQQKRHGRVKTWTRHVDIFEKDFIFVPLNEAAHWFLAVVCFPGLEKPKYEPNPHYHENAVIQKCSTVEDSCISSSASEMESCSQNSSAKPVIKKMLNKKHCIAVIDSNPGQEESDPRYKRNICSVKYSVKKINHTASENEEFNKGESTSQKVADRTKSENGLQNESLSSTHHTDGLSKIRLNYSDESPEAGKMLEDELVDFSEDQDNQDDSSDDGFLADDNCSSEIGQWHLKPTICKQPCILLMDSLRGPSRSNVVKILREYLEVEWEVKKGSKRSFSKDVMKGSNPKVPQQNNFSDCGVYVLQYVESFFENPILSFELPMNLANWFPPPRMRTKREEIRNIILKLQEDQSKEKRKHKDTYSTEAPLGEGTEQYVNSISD

[3] = biological target: T4, Sentrin-specific protease 8 (Homo sapiens, UniProt Q96LD8);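 further: luminescence read-out of SENP8 inhibition, dose-response confirmation following an ultra-high-throughput screen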
T4 sequence (Q96LD8 whole entry): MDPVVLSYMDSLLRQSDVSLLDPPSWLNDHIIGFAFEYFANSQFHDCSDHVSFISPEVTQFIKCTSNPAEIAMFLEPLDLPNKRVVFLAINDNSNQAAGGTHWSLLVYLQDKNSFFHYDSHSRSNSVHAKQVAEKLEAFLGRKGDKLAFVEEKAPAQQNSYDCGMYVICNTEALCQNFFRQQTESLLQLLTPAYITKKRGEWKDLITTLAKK

| SMILES | IC50 (Caspase-3) | IC50 [1] | IC50 [2] | IC50 [3] |
| --- | --- | --- | --- | --- |
| COc1ccc(/C=N/Nc2cc(N(C)C)nc(N(C)C)n2)cc1 | > 100 µM (inactive) | 54.5 µM (active) | 5.62 µM (active) | 5.78 µM (active) |
| C/C(=N\c1cccc(C)c1)c1sc2ccccc2c1O | 17.4 µM (active) | 4.75 µM (active) | 12.7 µM (active) | 10.7 µM (active) |

Source: ChEMBL document CHEMBL1201862, “PubChem BioAssay data set” (2004)
